Experimental data reported in the NIST ThermoML archive (doi:10.1021/acs.jced.6b00455).

Experiment: mn = molality of the nth substance listed, in mol/kg
Details: 101 kPa, Liquid, Alternating current cell with electrodes

C[N+](C)(C)CCO.O=C([O-])C(F)(F)C(F)(F)C(F)(F)C(F)(F)C(F)(F)C(F)(F)F [(2-hydroxyethyl)trimethylammonium perfluoroheptanoate] + O
Details	electrical conductivity [S/m]
293.15 K, m1 = 0.000135	0.0009
293.15 K, m1 = 0.000317	0.002
293.15 K, m1 = 0.000535	0.0035
293.15 K, m1 = 0.000719	0.0047
293.15 K, m1 = 0.000905	0.0059
293.15 K, m1 = 0.001097	0.0071
293.15 K, m1 = 0.001295	0.0083
293.15 K, m1 = 0.001556	0.01
293.15 K, m1 = 0.001738	0.0112
293.15 K, m1 = 0.001921	0.0124
293.15 K, m1 = 0.002361	0.0151
293.15 K, m1 = 0.002553	0.0164
293.15 K, m1 = 0.002745	0.0179
293.15 K, m1 = 0.002967	0.0189
293.15 K, m1 = 0.003167	0.0201
293.15 K, m1 = 0.003365	0.021
293.15 K, m1 = 0.003617	0.0224
293.15 K, m1 = 0.003811	0.0234
293.15 K, m1 = 0.003989	0.0244
293.15 K, m1 = 0.004235	0.0259
293.15 K, m1 = 0.004463	0.0271
293.15 K, m1 = 0.004647	0.0283
293.15 K, m1 = 0.005243	0.0318
293.15 K, m1 = 0.00563	0.0339
293.15 K, m1 = 0.006196	0.037
293.15 K, m1 = 0.006659	0.0405
293.15 K, m1 = 0.006813	0.0416
293.15 K, m1 = 0.007215	0.0437
293.15 K, m1 = 0.007673	0.0468
293.15 K, m1 = 0.007989	0.0489
298.15 K, m1 = 0.000182	0.0012
298.15 K, m1 = 0.000351	0.0023
298.15 K, m1 = 0.000524	0.0036
298.15 K, m1 = 0.000696	0.0048
298.15 K, m1 = 0.000849	0.0059
298.15 K, m1 = 0.001022	0.0071
298.15 K, m1 = 0.001139	0.0079
298.15 K, m1 = 0.001334	0.0092
298.15 K, m1 = 0.001552	0.0107
298.15 K, m1 = 0.001763	0.0123
298.15 K, m1 = 0.001988	0.014
298.15 K, m1 = 0.002225	0.0158
298.15 K, m1 = 0.002433	0.0172
298.15 K, m1 = 0.002631	0.0186
298.15 K, m1 = 0.00283	0.0198
298.15 K, m1 = 0.003092	0.0212
298.15 K, m1 = 0.003297	0.0222
298.15 K, m1 = 0.003578	0.0237
298.15 K, m1 = 0.003893	0.0254
298.15 K, m1 = 0.004239	0.0271
298.15 K, m1 = 0.004535	0.0288
298.15 K, m1 = 0.004786	0.0303
298.15 K, m1 = 0.00505	0.0318
298.15 K, m1 = 0.005319	0.0333
298.15 K, m1 = 0.005529	0.0345
298.15 K, m1 = 0.005823	0.0361
303.15 K, m1 = 0.000162	0.0014
303.15 K, m1 = 0.000327	0.0027
303.15 K, m1 = 0.000396	0.0031
303.15 K, m1 = 0.000558	0.0045
303.15 K, m1 = 0.000597	0.0046
303.15 K, m1 = 0.000902	0.0068
303.15 K, m1 = 0.001056	0.0084
303.15 K, m1 = 0.001145	0.0088
303.15 K, m1 = 0.001333	0.0102
303.15 K, m1 = 0.001525	0.0116
303.15 K, m1 = 0.001575	0.0126
303.15 K, m1 = 0.001779	0.0138
303.15 K, m1 = 0.001975	0.0164
303.15 K, m1 = 0.00219	0.0173
303.15 K, m1 = 0.002392	0.0187
303.15 K, m1 = 0.002573	0.0201
303.15 K, m1 = 0.002757	0.0218
303.15 K, m1 = 0.003	0.0233
303.15 K, m1 = 0.003295	0.0254
303.15 K, m1 = 0.003479	0.0262
303.15 K, m1 = 0.003569	0.0269
303.15 K, m1 = 0.00377	0.0282
303.15 K, m1 = 0.00395	0.0297
303.15 K, m1 = 0.004136	0.0313
303.15 K, m1 = 0.004356	0.033
303.15 K, m1 = 0.00458	0.0343
303.15 K, m1 = 0.004761	0.0357
303.15 K, m1 = 0.005083	0.0368
308.15 K, m1 = 0.000308	0.0028
308.15 K, m1 = 0.001088	0.0096
308.15 K, m1 = 0.001458	0.0131
308.15 K, m1 = 0.001696	0.0151
308.15 K, m1 = 0.001932	0.0174
308.15 K, m1 = 0.002314	0.0204
308.15 K, m1 = 0.002768	0.0243
308.15 K, m1 = 0.002948	0.0255
308.15 K, m1 = 0.003212	0.0279
308.15 K, m1 = 0.003414	0.0297
308.15 K, m1 = 0.003749	0.0324
308.15 K, m1 = 0.004024	0.0348
308.15 K, m1 = 0.004369	0.037
308.15 K, m1 = 0.004622	0.0392
308.15 K, m1 = 0.004874	0.0413
308.15 K, m1 = 0.00517	0.0438
308.15 K, m1 = 0.005462	0.0462
313.15 K, m1 = 0.000152	0.0016
313.15 K, m1 = 0.000311	0.0032
313.15 K, m1 = 0.000509	0.005
313.15 K, m1 = 0.000756	0.0072
313.15 K, m1 = 0.000952	0.0094
313.15 K, m1 = 0.001127	0.0112
313.15 K, m1 = 0.001383	0.0138
313.15 K, m1 = 0.001573	0.0155
313.15 K, m1 = 0.001796	0.0179
313.15 K, m1 = 0.001971	0.0201
313.15 K, m1 = 0.002233	0.0227
313.15 K, m1 = 0.002359	0.0239
313.15 K, m1 = 0.002573	0.0262
313.15 K, m1 = 0.002937	0.0297
313.15 K, m1 = 0.003135	0.0321
313.15 K, m1 = 0.003363	0.0336
313.15 K, m1 = 0.003618	0.0359
313.15 K, m1 = 0.003798	0.0379
313.15 K, m1 = 0.003983	0.0396
313.15 K, m1 = 0.004151	0.0413
313.15 K, m1 = 0.004487	0.0444
313.15 K, m1 = 0.004771	0.0466
313.15 K, m1 = 0.00507	0.0489
313.15 K, m1 = 0.005297	0.0508
313.15 K, m1 = 0.005682	0.0543
